Values quoted from earlier work, collected in patent US10494420B2, “Mast cell stabilizers for treatment of hypercytokinemia and viral infection” (priority 2016, dated 2019).

Experiments:
H5N1 Influenza Virus = details: mouse, in vivo
[1] = intranasal delivery versus any other route, rabbits

## CN1CCC(=C2c3ccccc3CC(=O)c3sccc32)CC1 [ketotifen]
Mast cells
  mast cell degranulation and release of mediators (histamine, TNF-α, prostaglandins, leukotrienes, interleukins): inhibit mast cell degranulation
H5N1 Influenza Virus
  impact on survival: increased when the compounds were combined
  survival of mice: increase survival of mice
[1]
  bioavailability: more bioavailable using intranasal delivery
